Results: US7943770B2, “Fused quinoline derivative and use thereof” (Takeda Pharmaceutical Company Limited, priority 2004, dated 2011)

Target: T1, hNK2 receptor (Homo sapiens, UniProt P21452)
T1 construct: host or cells: CHO cells
T1 sequence (P21452 1-398): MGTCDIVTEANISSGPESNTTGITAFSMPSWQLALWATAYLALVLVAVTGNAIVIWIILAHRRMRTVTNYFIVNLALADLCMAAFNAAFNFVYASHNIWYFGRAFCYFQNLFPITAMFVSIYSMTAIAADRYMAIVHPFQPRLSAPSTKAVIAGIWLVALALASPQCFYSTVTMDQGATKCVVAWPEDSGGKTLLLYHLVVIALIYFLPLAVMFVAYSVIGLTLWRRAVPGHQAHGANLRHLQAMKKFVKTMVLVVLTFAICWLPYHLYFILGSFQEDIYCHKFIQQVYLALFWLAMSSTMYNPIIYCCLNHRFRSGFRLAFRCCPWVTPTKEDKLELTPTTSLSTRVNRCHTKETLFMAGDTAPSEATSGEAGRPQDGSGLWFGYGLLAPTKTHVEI
Experiment: Radio-ligand ([125I]-NKA) receptor binding inhibitory activity using membrane fraction of hNK2 receptor-expressing CHO cell
Settings: membrane fraction of hNK2 receptor-expressing CHO cells, 25° C., 30 min
How it was run: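 Inhibition of [125I]-NKA binding ([…] solution added) measured after 30 min at 25 °C using hNK2-CHO membrane fraction (20 μg/mL suspension) in pH 7.4 Tris buffer containing MnCl2, BSA and protease inhibitors. Filter-bound counts read; activity calculated as fraction of specific binding, non-specific defined with unlabeled NKA.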

| IC50 [nM] | Structure (SMILES) |
| --- | --- |
| < 1 | CCC[C@@H]1Nc2ccccc2[C@H]2[C@@H]1CCN2C(=O)[C@H]1CCCC[C@H]1NC(=O)c1ccc(OC)cc1 [Example 194, 4-Methoxy-N-((1R,2S)-2-{[(3aR,4S,9bR)-4-propyl-2,3,3a,4,5,9b-hexahydro-1H-pyrrolo[3,2-c]quinolin-1-yl]carbonyl}cyclohexyl)benzamide] |
| < 1 | CCC[C@@H]1Nc2ccccc2[C@H]2[C@@H]1CCN2C(=O)[C@H]1CCCC[C@H]1NC(=O)Nc1ccccc1 [Example 195, N-Phenyl-N′-((1R,2S)-2-{[(3aR,4S,9bR)-4-propyl-2,3,3a,4,5,9b-hexahydro-1H-pyrrolo[3,2-c]quinolin-1-yl]carbonyl}cyclohexyl)urea] |
| < 1 | CCC[C@@H]1Nc2ccccc2[C@H]2[C@@H]1CCN2C(=O)[C@H]1CCCC[C@H]1NC(=O)Nc1ccc(OC)cc1 [Example 196, N-(4-Methoxyphenyl)-N′-((1R,2S)-2-{[(3aR,4S,9bR)-4-propyl-2,3,3a,4,5,9b-hexahydro-1H-pyrrolo[3,2-c]quinolin-1-yl]carbonyl}cyclohexyl)urea] |
| < 1 | CCC[C@@H]1Nc2ccccc2[C@H]2[C@@H]1CCN2C(=O)[C@H]1CCCC[C@H]1NC(=O)Nc1ccc(F)cc1 [Example 197, N-(4-Fluorophenyl)-N′-((1R,2S)-2-{[(3aR,4S,9bR)-4-propyl-2,3,3a,4,5,9b-hexahydro-1H-pyrrolo[3,2-c]quinolin-1-yl]carbonyl}cyclohexyl)urea] |
| < 1 | CCC[C@@H]1Nc2ccccc2[C@H]2[C@@H]1CCN2C(=O)[C@H]1CCCC[C@H]1NC(=O)c1ccc2[nH]c(C)nc2c1 [Example 201, 2-methyl-N-((1R,2S)-2-{[(3aR,4S,9bR)-4-propyl-2,3,3a,4,5,9b-hexahydro-1H-pyrrolo[3,2-c]quinolin-1-yl]carbonyl}cyclohexyl)-1H-benzimidazole-5-carboxamide] |
| < 1 | CCC[C@@H]1Nc2ccccc2[C@H]2[C@@H]1CCN2C(=O)[C@H]1CCCC[C@H]1NC(=O)c1ccc(C#N)cc1 [Example 202, 4-Cyano-N-((1R,2S)-2-{[(3aR,4S,9bR)-4-propyl-2,3,3a,4,5,9b-hexahydro-1H-pyrrolo[3,2-c]quinolin-1-yl]carbonyl}cyclohexyl)benzamide] |
| < 1 | COC[C@@H]1Nc2ccccc2[C@H]2[C@@H]1CCN2C(=O)[C@H]1CCCC[C@H]1NC(=O)Nc1ccc(OC)cc1 [Example 206, N-((1R,2S)-2-{[(3aR,4R,9bR)-4-(Methoxymethyl)-2,3,3a,4,5,9b-hexahydro-1H-pyrrolo[3,2-c]quinolin-1-yl]carbonyl}cyclohexyl)-N′-(4-methoxyphenyl)urea] |
| < 1 | COC[C@@H]1Nc2ccccc2[C@H]2[C@@H]1CCN2C(=O)[C@H]1CCCC[C@H]1NC(=O)c1ccc(C(F)(F)F)cc1 [Example 210, N-((1R,2S)-2-{[(3aR,4R,9bR)-4-(Methoxymethyl)-2,3,3a,4,5,9b-hexahydro-1H-pyrrolo[3,2-c]quinolin-1-yl]carbonyl}cyclohexyl)-4-(trifluoromethyl)benzamide] |
| < 10 | COC[C@@H]1Nc2ccccc2[C@H]2[C@@H]1CCN2C(=O)[C@H]1CCCC[C@H]1NC(=O)c1ccc(C)nc1 [Example 211, N-((1R,2S)-2-{[(3aR,4R,9bR)-4-(Methoxymethyl)-2,3,3a,4,5,9b-hexahydro-1H-pyrrolo[3,2-c]quinolin-1-yl]carbonyl}cyclohexyl)-6-methylnicotinamide] |
| < 1 | COC[C@@H]1Nc2ccccc2[C@H]2[C@@H]1CCN2C(=O)[C@H]1CCCC[C@H]1NC(=O)c1ccc(N(C)C)cc1 [Example 213, 4-(Dimethylamino)-N-((1R,2S)-2-{[(3aR,4R,9bR)-4-(methoxymethyl)-2,3,3a,4,5,9b-hexahydro-1H-pyrrolo[3,2-c]quinolin-1-yl]carbonyl}cyclohexyl)benzamide] |
| < 1 | COC[C@@H]1Nc2ccccc2[C@H]2[C@@H]1CCN2C(=O)[C@H]1CCCC[C@H]1NC(=O)c1ccc(OC(F)(F)F)cc1 [Example 215, N-((1R,2S)-2-{[(3aR,4R,9bR)-4-(Methoxymethyl)-2,3,3a,4,5,9b-hexahydro-1H-pyrrolo[3,2-c]quinolin-1-yl]carbonyl}cyclohexyl)-4-(trifluoromethoxy)benzamide] |
| < 10 | COC[C@@H]1Nc2ccccc2[C@H]2[C@@H]1CCN2C(=O)[C@H]1CCCC[C@H]1NC(=O)c1ccc(C#N)cc1 [Example 216, 4-Cyano-N-((1R,2S)-2-{[(3aR,4R,9bR)-4-(methoxymethyl)-2,3,3a,4,5,9b-hexahydro-1H-pyrrolo[3,2-c]quinolin-1-yl]carbonyl}cyclohexyl)benzamide] |
| < 1 | COC[C@@H]1Nc2ccccc2[C@H]2[C@@H]1CCN2C(=O)[C@H]1CCCC[C@H]1NC(=O)c1ccc2[nH]ccc2c1 [Example 218, N-((1R,2S)-2-{[(3aR,4R,9bR)-4-(Methoxymethyl)-2,3,3a,4,5,9b-hexahydro-1H-pyrrolo[3,2-c]quinolin-1-yl]carbonyl}cyclohexyl)-1H-indole-5-carboxamide] |

The next lines start with the molecule.

| Structure (SMILES) | IC50 [nM] |
| --- | --- |
| Cc1nc2cc(C(=O)N[C@@H]3CCCC[C@@H]3C(=O)N3CC[C@@H]4[C@H](c5ccsc5)Nc5ccccc5[C@@H]43)ccc2[nH]1 [Example 192, 2-Methyl-N-((1R,2S)-2-{[(3aR,4R,9bR)-4-(3-thienyl)-2,3,3a,4,5,9b-hexahydro-1H-pyrrolo[3,2-c]quinolin-1-yl]carbonyl}cyclohexyl)-1H-benzimidazole-5-carboxamide] | < 1 |
| C[C@]12CCN(C(=O)[C@H]3CCCC[C@H]3NC(=O)c3ccccc3)[C@H]1c1ccccc1N[C@H]2c1ccsc1 [Example 193, N-((1R,2S)-2-{[(3aR,4R,9bR)-3a-Methyl-4-(3-thienyl)-2,3,3a,4,5,9b-hexahydro-1H-pyrrolo[3,2-c]quinolin-1-yl]carbonyl}cyclohexyl)benzamide] | < 1 |
| CCC[C@@H]1Nc2ccccc2[C@H]2[C@@H]1CCN2C(=O)[C@H]1CCCC[C@H]1NC(=O)NCC [Example 198, N-Ethyl-N′-((1R,2S)-2-{[(3aR,4S,9bR)-4-propyl-2,3,3a,4,5,9b-hexahydro-1H-pyrrolo[3,2-c]quinolin-1-yl]carbonyl}cyclohexyl)urea] | < 10 |
| CCCCNC(=O)N[C@@H]1CCCC[C@@H]1C(=O)N1CC[C@@H]2[C@H](CCC)Nc3ccccc3[C@@H]21 [Example 199, N-Butyl-N′-((1R,2S)-2-{[(3aR,4S,9bR)-4-propyl-2,3,3a,4,5,9b-hexahydro-1H-pyrrolo[3,2-c]quinolin-1-yl]carbonyl}cyclohexyl)urea] | < 10 |
| CCC[C@@H]1Nc2ccccc2[C@H]2[C@@H]1CCN2C(=O)[C@H]1CCCC[C@H]1NC(=O)Nc1ccc2c(c1)OCO2 [Example 200, N-1,3-Benzodioxol-5-yl-N′-((1R,2S)-2-{[(3aR,4S,9bR)-4-propyl-2,3,3a,4,5,9b-hexahydro-1H-pyrrolo[3,2-c]quinolin-1-yl]carbonyl}cyclohexyl)urea] | < 1 |
| COC[C@@H]1Nc2ccccc2[C@H]2[C@@H]1CCN2C(=O)[C@H]1CCCC[C@H]1NC(=O)Nc1ccccc1 [Example 204, N-((1R,2S)-2-{[(3aR,4R,9bR)-4-(Methoxymethyl)-2,3,3a,4,5,9b-hexahydro-1H-pyrrolo[3,2-c]quinolin-1-yl]carbonyl}cyclohexyl)-N′-phenylurea] | < 1 |
| COC[C@@H]1Nc2ccccc2[C@H]2[C@@H]1CCN2C(=O)[C@H]1CCCC[C@H]1NC(=O)Nc1ccc(F)cc1 [Example 205, N-(4-Fluorophenyl)-N′-((1R,2S)-2-{[(3aR,4R,9bR)-4-(methoxymethyl)-2,3,3a,4,5,9b-hexahydro-1H-pyrrolo[3,2-c]quinolin-1-yl]carbonyl}cyclohexyl)urea] | < 1 |
| COC[C@@H]1Nc2ccccc2[C@H]2[C@@H]1CCN2C(=O)[C@H]1CCCC[C@H]1NC(=O)Nc1ccc2c(c1)OCO2 [Example 208, N-1,3-Benzodioxol-5-yl-N′-((1R,2S)-2-{[(3aR,4R,9bR)-4-(methoxymethyl)-2,3,3a,4,5,9b-hexahydro-1H-pyrrolo[3,2-c]quinolin-1-yl]carbonyl}cyclohexyl)urea] | < 1 |
| COC[C@@H]1Nc2ccccc2[C@H]2[C@@H]1CCN2C(=O)[C@H]1CCCC[C@H]1NC(=O)/C=C/c1ccc(C(F)(F)F)cc1 [Example 209] | < 1 |
| COC[C@@H]1Nc2ccccc2[C@H]2[C@@H]1CCN2C(=O)[C@H]1CCCC[C@H]1NC(=O)c1ccc(F)c(F)c1 [Example 212, 3,4-Difluoro-N-((1R,2S)-2-{[(3aR,4R,9bR)-4-(methoxymethyl)-2,3,3a,4,5,9b-hexahydro-1H-pyrrolo[3,2-c]quinolin-1-yl]carbonyl}cyclohexyl)benzamide] | < 1 |
| COC[C@@H]1Nc2ccccc2[C@H]2[C@@H]1CCN2C(=O)[C@H]1CCCC[C@H]1NC(=O)Nc1ccc(C#N)cc1 [Example 217, N-(Cyanophenyl)-N′-((1R,2S)-2-{[(3aR,4R,9bR)-4-(methoxymethyl)-2,3,3a,4,5,9b-hexahydro-1H-pyrrolo[3,2-c]quinolin-1-yl]carbonyl}cyclohexyl)urea] | < 1 |
| COC[C@@H]1Nc2ccccc2[C@H]2[C@@H]1CCN2C(=O)[C@H]1CCCC[C@H]1NC(=O)c1ccc2[nH]nnc2c1 [Example 219, N-((1R,2S)-2-{[(3aR,4R,9bR)-4-(methoxymethyl)-2,3,3a,4,5,9b-hexahydro-1H-pyrrolo[3,2-c]quinolin-1-yl]carbonyl}cyclohexyl)-1H-1,2,3-benzotriazole-5-carboxamide] | < 1 |
